Patent EP2403490B1, “AN IMPROVED DRY POWDER DRUG DELIVERY SYSTEM” (MannKind Corporation, priority 2009, dated 2010)

Key:
Assay type in all cases: physicochemical
[1] = Geometric particle size of emitted formulations by VMGD, laser diffraction (Example 6); details: 56 % trans
From the text: Laser diffraction of dry powder formulations emitted from dry powder inhalers is a common methodology employed to characterize the level of de-agglomeration subjected to a powder. The methodology indicates a measure of geometric size rather than aerodynamic size as occurring in industry standard impaction methodologies. Typically, the geometric size of the emitted powder includes a volumetric distribution characterized by the median particle size, VMGD. Importantly, geometric sizes of the emitted particles are discerned with heightened resolution as compared to the aerodynamic sizes provided by impaction methods. Smaller sizes are preferred and result in greater likelihood of individual particles being delivered to the pulmonary tract. Thus, differences in inhaler de-agglomeration and ultimate performance can be easier to resolve with diffraction. In these experiments, an inhaler as specified in Example 3 and a predicate inhaler are tested with laser diffraction at pressures analogous to actual patient inspiratory capacities to determine the effectiveness of the inhalation system to de-agglomerate powder formulations. […] Reported in Table 5 are a VMGD and an efficiency of the container emptying during the testing. […]

[2] = Powder flowability (Hausner ratio, compressibility index, angle of repose, critical orifice testing)
From the text: The compressibility index (Cl) can be calculated from the Hausner ratio (HR) as C1 = 100 × (1−(1/HR)). [formula]
FDKP microparticles either unmodified or containing a drug, for example insulin, constitute highly cohesive powders.

[3] = In vitro performance DPI 2 vs MEDTONE delivery system, laser diffraction and emitted mass (Example 7); details: fill weight 10 mg, 4 kPa
From the text: This system includes dry powder formulations, pre-metered into single-use cartridges and inserted into a high resistance, breath-powered, re-usable MEDTONE(R) inhaler. […] In vitro powder performance for these systems was compared for various parameter of inhaler performance. For DPI 2 a single discharge per cartridge was used as compared to two discharges per cartridge in the MEDTONE(R) system.
Particle sizing by laser diffraction and quantification of emitted mass as described above were used in these experiments. A laser diffraction instrument (Sympatec HELOS) was adapted with a novel pressurized inhaler chamber to facilitate analysis of powder plumes. MTDS cartridges were discharged twice per determination versus once with DPI 2.

[4] = DPI 2, single discharge, 15 cartridges
[5] = MEDTONE® (MTDS), two discharges, 30 cartridges

`O=C(O)/C=C/C(=O)NCCCCC1NC(=O)C(CCCCNC(=O)/C=C/C(=O)O)NC1=O` (stereo not shown) [FDKP, bis-3,6-(N-fumaryl-4-aminobutyl)-2,5-diketopiperazine] showed a VMGD ([1]; DPI 2, SSA 55 m2/g, pressure drop 4 kPa) of 6.800 micron, a VMGD ([1]; MEDTONE®, SSA 55, 4 kPa) of 21.200 micron and an angle of repose [2] of 40 °. The “Ave. Geometric SD” value [3, 4] was 3.79 µm, the “Ave. VMGD” value [3, 4] was 6.84 µm and the “Ave. Geometric SD” value [3, 5] was 2.94 µm. For the same molecule, the “Ave. VMGD” value [3, 5] was 21.21 µm.
